From ChEMBL document CHEMBL5214943, “Guanidino quinazolines and pyrimidines promote readthrough of premature termination codons in cells with native nonsense mutations” (Bioorg Med Chem Lett, 2022)
Blank lines part the entries; values can stand above or below the compound they belong to. Calls of active or inactive are those of the source. The calls are words filed in the database; no cut-off is given here.

Legend:
Format in all cases: cell-based
[1] = system: Premature termination codon; experiment: Induction of read through activity at T-p53 R213X mutant premature termination codon in human HDQ-P1 cells assessed as increase in production of full length p53 protein by MSD assay
[2] = target: Dystrophin (Mus musculus) (UniProt P11531); experiment: Induction of read through activity at dystrophin in mouse H2K mdx cells assessed as increase in production of full length dystrophin protein at 0.01 to 100 uM by MSD assay; settings: filed as activator, dose 0.01-100 µM
Sequence of Dystrophin (Mus musculus) (P11531 whole entry): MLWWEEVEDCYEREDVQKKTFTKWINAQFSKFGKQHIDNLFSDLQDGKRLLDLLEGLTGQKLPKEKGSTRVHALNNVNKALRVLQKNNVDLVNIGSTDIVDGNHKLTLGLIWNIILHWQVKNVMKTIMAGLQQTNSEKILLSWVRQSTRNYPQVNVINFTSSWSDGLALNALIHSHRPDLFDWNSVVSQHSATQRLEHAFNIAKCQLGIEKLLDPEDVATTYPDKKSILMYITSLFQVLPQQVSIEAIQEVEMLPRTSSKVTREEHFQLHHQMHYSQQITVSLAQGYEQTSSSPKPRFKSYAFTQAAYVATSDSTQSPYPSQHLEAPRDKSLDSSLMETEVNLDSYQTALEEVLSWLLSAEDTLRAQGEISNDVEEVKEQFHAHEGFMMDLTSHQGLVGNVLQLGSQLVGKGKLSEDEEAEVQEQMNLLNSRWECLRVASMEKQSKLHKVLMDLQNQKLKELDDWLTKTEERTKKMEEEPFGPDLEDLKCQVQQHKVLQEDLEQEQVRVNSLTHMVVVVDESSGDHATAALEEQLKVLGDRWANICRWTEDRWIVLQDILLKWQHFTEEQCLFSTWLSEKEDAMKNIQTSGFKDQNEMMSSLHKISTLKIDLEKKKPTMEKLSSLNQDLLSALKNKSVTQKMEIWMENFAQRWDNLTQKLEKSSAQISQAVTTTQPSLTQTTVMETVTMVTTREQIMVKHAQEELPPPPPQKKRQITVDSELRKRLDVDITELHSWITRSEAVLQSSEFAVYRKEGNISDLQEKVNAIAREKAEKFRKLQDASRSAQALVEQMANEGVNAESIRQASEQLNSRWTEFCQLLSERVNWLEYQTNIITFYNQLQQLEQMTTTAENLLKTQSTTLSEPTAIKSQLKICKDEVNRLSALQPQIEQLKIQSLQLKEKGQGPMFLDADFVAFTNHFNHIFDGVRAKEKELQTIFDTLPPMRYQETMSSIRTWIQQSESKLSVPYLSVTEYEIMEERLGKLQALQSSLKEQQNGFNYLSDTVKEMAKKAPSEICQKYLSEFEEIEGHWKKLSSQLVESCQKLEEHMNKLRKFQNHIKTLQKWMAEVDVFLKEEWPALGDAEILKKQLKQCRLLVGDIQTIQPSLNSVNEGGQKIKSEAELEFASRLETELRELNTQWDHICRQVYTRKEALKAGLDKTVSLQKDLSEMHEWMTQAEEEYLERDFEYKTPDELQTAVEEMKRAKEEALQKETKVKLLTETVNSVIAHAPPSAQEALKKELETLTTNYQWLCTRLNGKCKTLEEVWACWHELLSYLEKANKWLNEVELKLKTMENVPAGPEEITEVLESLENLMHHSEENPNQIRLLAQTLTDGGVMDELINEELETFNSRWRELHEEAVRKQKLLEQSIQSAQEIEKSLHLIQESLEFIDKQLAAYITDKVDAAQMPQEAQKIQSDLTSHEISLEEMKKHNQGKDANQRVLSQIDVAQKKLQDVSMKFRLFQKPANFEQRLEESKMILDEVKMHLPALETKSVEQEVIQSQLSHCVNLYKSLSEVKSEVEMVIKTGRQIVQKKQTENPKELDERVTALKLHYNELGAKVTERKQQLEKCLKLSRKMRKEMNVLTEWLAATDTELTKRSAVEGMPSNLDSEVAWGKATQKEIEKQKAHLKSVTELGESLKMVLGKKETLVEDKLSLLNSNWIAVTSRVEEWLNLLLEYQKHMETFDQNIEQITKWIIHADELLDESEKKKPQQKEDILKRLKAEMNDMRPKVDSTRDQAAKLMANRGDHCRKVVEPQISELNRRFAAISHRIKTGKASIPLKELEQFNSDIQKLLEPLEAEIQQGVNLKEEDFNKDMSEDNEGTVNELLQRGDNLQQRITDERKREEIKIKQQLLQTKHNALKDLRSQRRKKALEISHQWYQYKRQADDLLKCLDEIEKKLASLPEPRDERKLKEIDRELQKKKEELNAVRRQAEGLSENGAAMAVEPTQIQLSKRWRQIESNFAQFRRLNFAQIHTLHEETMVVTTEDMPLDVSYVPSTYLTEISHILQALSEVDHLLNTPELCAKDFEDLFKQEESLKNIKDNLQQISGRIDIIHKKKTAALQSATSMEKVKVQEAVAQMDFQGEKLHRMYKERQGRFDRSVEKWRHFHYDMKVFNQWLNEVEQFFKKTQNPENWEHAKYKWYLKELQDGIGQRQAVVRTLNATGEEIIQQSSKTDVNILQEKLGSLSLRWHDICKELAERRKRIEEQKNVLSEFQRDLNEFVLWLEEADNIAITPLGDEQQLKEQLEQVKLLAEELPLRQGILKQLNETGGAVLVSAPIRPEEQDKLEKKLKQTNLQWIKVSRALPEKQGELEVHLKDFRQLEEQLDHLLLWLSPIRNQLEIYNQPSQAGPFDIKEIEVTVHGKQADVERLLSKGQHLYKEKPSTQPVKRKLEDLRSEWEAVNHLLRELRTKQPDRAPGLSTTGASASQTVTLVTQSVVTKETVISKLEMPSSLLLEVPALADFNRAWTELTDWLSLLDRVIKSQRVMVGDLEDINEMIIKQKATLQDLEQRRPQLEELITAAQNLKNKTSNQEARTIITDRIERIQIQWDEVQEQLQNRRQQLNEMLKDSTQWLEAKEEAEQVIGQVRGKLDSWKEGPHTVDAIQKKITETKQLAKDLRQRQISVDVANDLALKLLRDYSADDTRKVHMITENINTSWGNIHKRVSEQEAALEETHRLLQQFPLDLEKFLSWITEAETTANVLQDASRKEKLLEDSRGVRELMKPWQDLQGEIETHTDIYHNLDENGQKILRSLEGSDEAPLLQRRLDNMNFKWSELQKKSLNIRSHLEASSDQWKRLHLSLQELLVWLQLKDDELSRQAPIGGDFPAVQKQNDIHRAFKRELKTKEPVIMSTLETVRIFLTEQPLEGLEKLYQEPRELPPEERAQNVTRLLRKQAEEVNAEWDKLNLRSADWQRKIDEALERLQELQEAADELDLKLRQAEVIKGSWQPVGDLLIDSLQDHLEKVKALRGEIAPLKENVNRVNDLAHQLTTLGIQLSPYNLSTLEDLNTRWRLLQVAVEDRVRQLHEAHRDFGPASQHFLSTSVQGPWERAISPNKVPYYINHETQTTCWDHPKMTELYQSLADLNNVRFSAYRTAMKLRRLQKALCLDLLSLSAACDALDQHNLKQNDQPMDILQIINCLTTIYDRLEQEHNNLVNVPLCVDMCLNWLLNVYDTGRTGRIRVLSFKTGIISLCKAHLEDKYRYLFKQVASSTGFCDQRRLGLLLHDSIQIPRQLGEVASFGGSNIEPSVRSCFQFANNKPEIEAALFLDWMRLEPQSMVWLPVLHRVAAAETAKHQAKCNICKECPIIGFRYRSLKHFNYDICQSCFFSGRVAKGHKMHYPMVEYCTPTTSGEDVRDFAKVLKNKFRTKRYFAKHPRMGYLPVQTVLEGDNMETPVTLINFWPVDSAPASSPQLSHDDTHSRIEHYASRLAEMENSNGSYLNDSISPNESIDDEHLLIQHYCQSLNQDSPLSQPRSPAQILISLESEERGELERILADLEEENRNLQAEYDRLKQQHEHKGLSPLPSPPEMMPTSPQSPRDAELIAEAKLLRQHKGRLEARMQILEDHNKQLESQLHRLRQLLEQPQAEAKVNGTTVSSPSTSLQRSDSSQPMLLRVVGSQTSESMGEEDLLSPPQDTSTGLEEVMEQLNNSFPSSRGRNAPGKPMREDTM

[3] = target: Dystrophin (Mus musculus) (UniProt P11531); experiment: Induction of read through activity at dystrophin in mouse H2K mdx cells assessed as increase in production of full length dystrophin protein at 0.6 to 20 uM by western blot assay; settings: filed as activator, dose 0.6-20 µM
[4] = target: Dystrophin (Mus musculus) (UniProt P11531); experiment: Induction of read through activity at dystrophin in mouse H2K mdx cells assessed as increase in production of full length dystrophin protein at <2 uM by MSD assay; settings: filed as activator
[5] = target: Dystrophin (Mus musculus) (UniProt P11531); experiment: Induction of read through activity at dystrophin in mouse H2K mdx cells assessed as increase in production of full length dystrophin protein at 0.07 to 2 uM by western blot assay; settings: filed as activator, dose 0.07-2 µM
[6] = target: Dystrophin (Mus musculus) (UniProt P11531); experiment: Induction of read through activity at dystrophin in mouse H2K mdx cells assessed as increase in production of full length dystrophin protein by measuring fold change at 0.01 to 100 uM by MSD assay; settings: filed as activator, dose 0.01-100 µM

SMILES: CNCCCNC(=N)Nc1nc(C)c2ccc(F)cc2n1
EC2 ([1]; filed as activator): 2.5 µM

SMILES: CN(C)CCCNC(=N)Nc1nc2c(c(-c3ccoc3)n1)CCCC2
EC2 ([1]; filed as activator): 1.1 µM

SMILES: Cc1ccc2nc(NC(=N)NCCCN3CCCC3)nc(C)c2c1
EC2 ([1]; filed as activator): 2.3 µM

SMILES: Cc1nc(NC(=N)N)cc2ccccc12
EC2 [1]: > 100 µM

SMILES: Cc1ccc2c(C)cc(NC(=N)N)nc2c1
EC2 [1]: > 100 µM

SMILES: Cc1ccnc(NC(=N)NCCCN(C)C)n1
EC2 [1]: > 30 µM

SMILES: CN(C)CCCNC(=N)Nc1ncc2ccccc2n1
EC2 ([1]; filed as activator): 7.5 µM

SMILES: CCc1cc(C)nc(NC(=N)NCCCN(C)C)n1
EC2 ([1]; filed as activator): 17 µM

SMILES: Cc1cccc2nc(NC(=N)NCCCN3CCCC3)nc(C)c12
EC2 ([1]; filed as activator): 0.84 µM

SMILES: Cc1nc(NC(=N)N(C)CCCN(C)C)nc2ccccc12
EC2 [1]: > 30 µM

Activity [2]: Active | Activity [3]: Active
SMILES: Cc1nc(NC(=N)NCCCN2CCCC2)nc(-c2ccoc2)c1C
EC2 ([1]; filed as activator): 1.2 µM

SMILES: Cc1ccc2cnc(NC(=N)N)nc2c1
EC2 [1]: > 100 µM

SMILES: Cc1nc(NC(=N)NCCO)nc2cc(F)ccc12
EC2 ([1]; filed as activator): 26 µM

SMILES: Cc1nc(NC(=N)NCCCN2CCCC2)nc2cc(F)ccc12
EC2 ([1]; filed as activator): 1.5 µM

SMILES: CN(C)CCCNC(=N)Nc1nc(-c2ccoc2)c2occc2n1
EC2 ([1]; filed as activator): 2 µM

SMILES: Cc1cccc2nc(NC(=N)NC3CCNCC3)nc(C)c12
EC2 ([1]; filed as activator): 1.1 µM

SMILES: Cc1nc(NC(=N)NCCN(C)C)nc2cc(F)ccc12
EC2 ([1]; filed as activator): 3.9 µM

SMILES: CN1CCC(NC(=N)Nc2nc3c(c(-c4ccoc4)n2)CCC3)CC1
EC2 ([1]; filed as activator): 0.22 µM

SMILES: Cc1nc(NC(=N)NCCCN2CCCC2)nc2c(C)cccc12
EC2 ([1]; filed as activator): 0.55 µM

SMILES: Cc1cccc2nc(NC(=N)N[C@H]3CCNC3)nc(C)c12
EC2 ([1]; filed as activator): 2.2 µM

SMILES: Cc1cc(-c2ccoc2)nc(NC(=N)NCCCN(C)C)n1
EC2 ([1]; filed as activator): 3 µM

SMILES: Cc1nc(NC(=N)NCC(=O)O)nc2cc(F)ccc12
EC2 [1]: > 100 µM

SMILES: Cc1nc(N)nc2ccccc12
EC2 [1]: > 100 µM

SMILES: CCNC(=N)Nc1nc(C)c2ccc(Cl)cc2n1
EC2 ([1]; filed as activator): 21 µM

SMILES: Cc1ccc2c(C)nc(NC(=N)N)nc2c1
EC2 ([1]; filed as activator): 10 µM

SMILES: CN(C)CCCNC(=N)Nc1nc(-c2ccoc2)c2sccc2n1
EC2 ([1]; filed as activator): 0.7 µM

SMILES: CN(C)CCCNC(=N)Nc1nc(-c2ccccc2)c2ccccc2n1
EC2 ([1]; filed as activator): 7.5 µM

SMILES: Cc1cccc2nc(NC(=N)N[C@@H]3CCNC3)nc(C)c12
EC2 ([1]; filed as activator): 1.3 µM

SMILES: Cc1nc(NC(=N)NCCCN(C)C)nc2cccc(F)c12
EC2 ([1]; filed as activator): 0.92 µM

SMILES: COc1cccc(NC(=N)Nc2nc(C)c3ccccc3n2)c1
EC2 ([1]; filed as activator): 21 µM

SMILES: Cc1cc(-c2ccccc2)nc(NC(=N)NCCCN(C)C)n1
EC2 ([1]; filed as activator): 7.3 µM

SMILES: Cc1nc(NC(=N)NCCCN2CCCC2)nc(-c2cccs2)c1C
EC2 ([1]; filed as activator): 0.42 µM

SMILES: CNC(=N)Nc1nc(C)c2ccc(C)cc2n1
EC2 ([1]; filed as activator): 7.7 µM

SMILES: N=C(NCCCN1CCC1)Nc1nc2c(c(-c3ccoc3)n1)CCC2
EC2 ([1]; filed as activator): 0.44 µM

SMILES: Cc1nc(NC(=N)NCCCN)nc2cc(F)ccc12
EC2 ([1]; filed as activator): 9.8 µM

SMILES: N=C(NCCCN1CCCC1)Nc1nc2c(c(-c3ccoc3)n1)CCC2
EC2 ([1]; filed as activator): 0.44 µM

SMILES: CN(C)CCCNC(=N)Nc1nc2c(c(-c3ccoc3)n1)CCCCC2
EC2 ([1]; filed as activator): 3.5 µM

SMILES: COCCNC(=N)Nc1nc(C)c2ccc(C)cc2n1
EC2 ([1]; filed as activator): 12 µM

SMILES: Cc1nc(NC(=N)NCCCN(C)CC(=O)O)nc2ccccc12
EC2 [1]: > 30 µM

SMILES: CN(C)CCCNC(=N)Nc1nc2c(c(-c3ccoc3)n1)COC2
EC2 ([1]; filed as activator): 2.4 µM

SMILES: Cc1nc(NC(=N)NCCCN2CCOCC2)nc2cc(F)ccc12
EC2 ([1]; filed as activator): 4.7 µM

SMILES: Cc1nc(NC(=N)NCCCN2CCCC2)nc(-c2ccco2)c1C
EC2 ([1]; filed as activator): 0.56 µM

SMILES: Cc1nc(NC(=N)NCCCCCCN(C)C)nc2cc(F)ccc12
EC2 ([1]; filed as activator): 17 µM

SMILES: Cc1nc(NC(=N)NC2CCCC(N(C)C)C2)nc2cc(F)ccc12 (stereo not given)
EC2 ([1]; filed as activator): 5.5 µM

SMILES: CN(C)CCCNC(=N)Nc1nc2c(c(-c3ccoc3)n1)CCCCCC2
EC2 ([1]; filed as activator): 2.7 µM

SMILES: Cc1nc(NC(=N)NCC(F)(F)CN(C)C)nc2ccccc12
EC2 [1]: > 30 µM

SMILES: Cc1nc(NC(=N)NCCCN2CCC3(CCC3)C2)nc2cc(F)ccc12
EC2 ([1]; filed as activator): 2.3 µM

SMILES: Cc1nc(NC(=N)NCC2(CN(C)C)CCCC2)nc2cc(F)ccc12
EC2 ([1]; filed as activator): 16 µM

SMILES: Cc1nc(NC(N)=O)nc2cc(Cl)ccc12
EC2 [1]: > 100 µM

SMILES: CCc1c(C)nc(NC(=N)NCCCN2CCCC2)nc1-c1ccoc1
EC2 ([1]; filed as activator): 3.2 µM

SMILES: Cc1nc(NC(=N)NCCCc2ccccc2)nc2ccccc12
EC2 ([1]; filed as activator): 47 µM

SMILES: Cc1cccc2nc(NC(=N)NC3CCN(C)CC3)nc(C)c12
EC2 ([1]; filed as activator): 0.51 µM

SMILES: Cc1nc(NC(=N)NCCCN(C)CC2CCC2)nc2cc(F)ccc12
EC2 ([1]; filed as activator): 1.1 µM

SMILES: Cc1nc(NC(=N)NCCCN2CCCC2)nc(-c2ccoc2)c1Cl
EC2 ([1]; filed as activator): 0.77 µM

SMILES: Cc1nc(NC(=N)N[C@H](C)CCN(C)C)nc2ccccc12
EC2 ([1]; filed as activator): 2.5 µM

Activity [4]: Active | Activity [5]: Active | fold change (FC) [6]: 3
SMILES: N=C(NCCCN1CCCCC1)Nc1nc2c(c(-c3ccoc3)n1)CCC2
EC2 ([1]; filed as activator): 0.4 µM

SMILES: Cc1cccc2nc(NC(=N)N[C@H]3CCN(C)C3)nc(C)c12
EC2 ([1]; filed as activator): 1 µM

SMILES: Cc1nc(NC(=N)NCCCN2CCCC2)nc(-c2ccoc2)c1C(F)(F)F
EC2 ([1]; filed as activator): 15 µM

SMILES: Cc1nc(NC(=N)N)nc2ccccc12
EC2 ([1]; filed as activator): 20 µM

SMILES: Cc1ccc2c(C)nc(NC(=N)NCCOCCO)nc2c1
EC2 ([1]; filed as activator): 48 µM

SMILES: Cc1nc(NC(=N)NCCCN(C)C)nc2cc(F)cc(F)c12
EC2 ([1]; filed as activator): 2.9 µM

SMILES: Cc1nc(NC(=N)NCCCN(C)CC(F)(F)F)nc2ccccc12
EC2 [1]: > 30 µM

SMILES: Cc1ccc2c(C)nc(NC(=N)NCCCN(C)C)nc2c1
EC2 ([1]; filed as activator): 1.1 µM

SMILES: Cc1nc(NC(=N)NCCCN(C)C)nc2ccccc12
EC2 ([1]; filed as activator): 1.7 µM

SMILES: Cc1nc(NC(=N)NCCCN(C)C)nc2cc(F)ccc12
EC2 ([1]; filed as activator): 1.1 µM

SMILES: Cc1nc(NS(N)(=O)=O)nc2cc(Cl)ccc12
EC2 [1]: > 100 µM

SMILES: Cc1nc(NC(=N)NCCCN2CCCCC2)nc2cc(F)ccc12
EC2 ([1]; filed as activator): 0.68 µM

SMILES: Cc1nc(NC(=N)NCCCN(C)[C@H](C)c2ccccc2)nc2ccccc12
EC2 ([1]; filed as activator): 1.8 µM

SMILES: Cc1ccc2c(C)nc(NC(=N)NCCCN3CCCC3)nc2c1
EC2 ([1]; filed as activator): 1 µM

SMILES: Cc1nc(NC(=N)NCCCN(C)C)nc(-c2ccoc2)c1C
EC2 ([1]; filed as activator): 1.3 µM

SMILES: CCN(CC)CCCNC(=N)Nc1nc(C)c2ccc(F)cc2n1
EC2 ([1]; filed as activator): 2.2 µM

SMILES: Cc1nc(NC(=N)NCCCN2CCCC2)nc2ccccc12
EC2 ([1]; filed as activator): 2.1 µM

SMILES: CN(C)CCCNC(=N)Nc1nc(-c2ccoc2)c2ccsc2n1
EC2 ([1]; filed as activator): 1.3 µM

SMILES: Cc1nc(NC(=N)NCCCN2CCCC2)nc(-c2ccoc2)c1Br
EC2 ([1]; filed as activator): 0.96 µM

SMILES: Cc1cccc2nc(NC(=N)N[C@@H]3CCN(C)C3)nc(C)c12
EC2 ([1]; filed as activator): 0.34 µM

SMILES: Cc1nc(NC(=N)NCCCN2CCCC2)nc(-c2ccsc2)c1C
EC2 ([1]; filed as activator): 1.4 µM

SMILES: Cc1nc(NC(=N)Nc2cccc(N(C)C)c2)nc2cc(Cl)ccc12
EC2 [1]: > 30 µM

SMILES: Cc1nc(NC(=N)NCCCCCN(C)C)nc2cc(F)ccc12
EC2 ([1]; filed as activator): 6.6 µM

SMILES: CN[C@@H]1[C@@H](O)[C@@H](O[C@@H]2[C@@H](O)[C@H](O[C@H]3O[C@H]([C@H](C)O)[C@@H](O)[C@H](O)[C@H]3N)[C@@H](N)C[C@H]2N)OC[C@]1(C)O
EC2 ([1]; filed as activator): 8.5 µM

SMILES: Cc1nc(N=C(N)N)nc2cc(F)ccc12
EC2 ([1]; filed as activator): 13 µM

SMILES: Cc1nc(NC(=N)NCCCN2CCN3CCCCC3C2)nc2cc(F)ccc12 (stereo not given)
EC2 ([1]; filed as activator): 3.5 µM

SMILES: Cc1nc(NC(=N)NCCCN(C)C)nc2cc(Cl)ccc12
EC2 ([1]; filed as activator): 0.85 µM

SMILES: CN(C)CCCNC(=N)Nc1nc2c(c(-c3ccoc3)n1)CCC2
EC2 ([1]; filed as activator): 0.44 µM

SMILES: Cc1nc(NC(=N)NCCCCN(C)C)nc2cc(F)ccc12
EC2 ([1]; filed as activator): 2.2 µM

SMILES: CN1CCC(NC(=N)Nc2nc3c(c(-c4ccco4)n2)CCC3)CC1
EC2 ([1]; filed as activator): 0.12 µM

SMILES: Cc1nc(N=C(N)N)nc2cc(Cl)ccc12
EC2 ([1]; filed as activator): 6.3 µM

SMILES: Cc1nc(NC(=N)NCCCN2CCCC2)nc(C)c1-c1ccoc1
EC2 [1]: > 30 µM

SMILES: Cc1nc(NC(=N)NCCCN2CCCC2)nc(-c2ccoc2)c1F
EC2 ([1]; filed as activator): 1.6 µM

SMILES: Cc1nc(NC(=N)NCCCN(C)[C@@H](C)c2ccccc2)nc2ccccc12
EC2 ([1]; filed as activator): 2.2 µM

SMILES: C/N=C(/NCCCN(C)C)Nc1nc(C)c2ccccc2n1
EC2 [1]: > 30 µM
